Values of other authors in paper PMC4484741 (Nuclear medicine and biology, 2011).
Like-named read-outs stand apart in the source and are kept apart here.

Columns and labels:
GLP-1 receptor = conditions: read-out: Kd, affinity to GLP-1 receptor
pancreatic BCM = conditions: rats, PET

For “Exendin (9-39): truncated version of exendin-4, antagonist of GLP-1 receptor”, the Kd (GLP-1 receptor) is listed as about 3 nM.
In the case of “GLP-1: endogenous ligand of the GLP-1 receptor”, the half-life in vivo (fast degradation by dipeptidyl peptidase-4) is listed as 1 to 2 min.
In the case of COc1cc2c(cc1OCCC[18F])CCN1C[C@@H](CC(C)C)[C@H](O)C[C@H]21 [[^18F]FP-DTBZ], the “Time within which liver and pancreas uptake rose to a plateau” value (pancreatic BCM) is given as at most 15 min.
In the case of “Exendin-4: 39-amino acid peptide hormone from Gila monster saliva, agonist of GLP-1 receptor”, the half-life in vivo is given as “about 2.4 h”.
For COc1cc2c(cc1O[11CH3])CCN1CC(CC(C)C)C(O)CC21 (centres unmarked) [[^11C]DTBZ], the “Time within which liver and pancreas uptake rose to a plateau” value (pancreatic BCM) is given as at most 15 min.
